Drawing on ChEMBL document CHEMBL3507680, “University of Dundee, Gates Library screen for HepG2 cell viability”, this text covers cytotoxicity for 104 compounds.

The structures appear in SMILES notation.

The data set can be described thus: Human HepG2 cell viability assay in 384 well format. Particulars: HepG2 cells, read-out: Inhibition. The format is toxicity, cell-based. More on the design: dose 125 nL, time 70.5 hour; cytotoxicity at 70.5 h: concentration not given beside the values.
On to `Cc1cc(CNC(=O)NCCOc2ccc(F)c(F)c2)on1`, for which the cytotoxicity at 70.5 h was -6.89%.
Next, `NC(=O)c1cccc(CNC(=O)NCCOc2ccc(F)c(F)c2)c1`: -2.9%; `CN(Cc1ccco1)Cc1ccccc1CNC(=O)c1cnc[nH]1`: 13.3%.
As for `COc1ccccc1OCC(=O)NS(=O)(=O)c1ccc(F)cc1F`, the figure is -8.29%.
Next, `Nc1ccnc(CNc2cc(F)ccc2OCC2CCCO2)n1` (centres undefined): -9.07%.
Regarding `Fc1ccc(OCC2CCCO2)c(NCc2noc(C3CC3)n2)c1` (centres undefined), the cytotoxicity at 70.5 h was -7.27%.
As to `COc1ccc(F)cc1C(=O)Nc1nnc(C)s1`, the cytotoxicity at 70.5 h is 6.71%.
Next, `CCOC(=O)NC(CNC(=O)c1cc(Cl)ccn1)CC(C)C` (centres undefined): 5.7%.
Next, `CCOC(=O)NC(CNC(=O)c1cccnc1SC)CC(C)C` (centres undefined): 8.28%; `CCOC(=O)NC(CNC(=O)c1cccc(C)n1)CC(C)C` (centres undefined): 7.69%; `CC(C)c1cc(C(=O)N2CCN(Cc3ccco3)CC2)n[nH]1`: 32.7%.
Consider `O=C(NCCNc1ncccn1)c1cnc(-c2ccccc2)nc1`, for which the cytotoxicity at 70.5 h is -2.38%.
As for `CCS(=O)(=O)NCCNC(=O)c1cnc(-c2ccccc2)nc1`, the figure is -8.98%; as for `N#Cc1ccc(CNC(=O)NC2CCN(CC(F)(F)F)C2)cc1` (centres undefined), -5.15%.
`c1ccc(NCc2ccc(Cn3ccnc3)cc2)nc1`: the cytotoxicity at 70.5 h is 41.7%.
As for `Cc1cc(C(=O)Nc2cccn(Cc3ccc(F)cc3)c2=O)no1`, the figure is 0.798%.
Next, `CC(C)Nc1cccc(CNC(=O)N2CCCC2)c1`: -5.5%; `COC(=O)CN(C(=O)c1ccc(-n2ccnc2)cc1)C1CC1`: -1.73%; `COCCN(CCC#N)Cn1cc(Cl)cn1`: -2.01%.
For `COCC(C)N(C)C(=O)c1ccc2nncn2c1` (centres undefined), the cytotoxicity at 70.5 h was -2.4%.
As for `CCc1cc(N2CCCC(c3noc(CC)n3)C2)ncn1` (centres undefined), the figure is -5.13%; as for `Cn1cc(S(=O)(=O)NC(=O)C2(c3ccccc3)CCC2)cn1`, -4.68%; as for `CCOC1CCN(C(=O)c2csc(S(N)(=O)=O)c2)CC1`, -4.71%.
As for `COCC(=O)Nc1ccc(Sc2nncn2C)c(Cl)c1`, the figure is 10.4%.
As for `Cn1cnnc1Sc1ccc(NC(=O)C2CC2)cc1Cl`, the figure is -9.39%; as for `Cc1cccc(C2(C(=O)NS(=O)(=O)c3cnn(C)c3)CCCC2)c1`, -1.9%.
In the case of `CSCC(C)(O)CNc1cccc(F)c1C#N` (centres undefined), the cytotoxicity at 70.5 h is -15.5%.
As for `Fc1ccc(OCCCN2CC(n3cccn3)C2)cc1`, the figure is -8.19%; as for `CCc1nc(C2CCCN(c3ncc(Br)cn3)C2)no1` (centres undefined), -14.4%.
Regarding `CCn1nc(C)c(S(=O)(=O)Nc2ccccc2C(=O)OC)c1C`, the cytotoxicity at 70.5 h is 11.2%.
Next, `NS(=O)(=O)c1cc(C(=O)N2CCCCC2)cs1`: -4.34%; `CN1CC(Nc2nc3c(cnn3C(C)(C)C)c(=O)[nH]2)CCC1=O` (centres undefined): -2.42%.
Next, `CN(C)C(=O)c1ccc(OC2CCOCC2)cc1`: -15.1%; `C[S+]([O-])c1ccc(NC(=O)Cc2cccnc2)cc1F` (centres undefined): 11.1%; `CCOC1CCCN(C(=O)c2[nH]nc(C3CC3)c2Br)C1` (centres undefined): -6.37%.
Take `CCOC1CCCN(C(=O)c2[nH]nc(C(C)C)c2Br)C1` (centres undefined): the cytotoxicity at 70.5 h was 11.3%.
As for `COc1ccccc1C(C)(C)NCc1ccc(C)o1`, the cytotoxicity at 70.5 h was -5.83%.
As for `COc1ccnc(NCC2CN(C3CC3)CCO2)n1` (centres undefined), the figure is 10.1%; as for `CN(Cc1cscn1)C1CCN(C(=O)OC(C)(C)C)CC1`, 29.5%.
Next, `Cc1ncsc1C(=O)NCCNc1cnccn1`: -3.47%; `CC(C)(C)c1ncc(C(=O)NCCn2ccnc2)s1`: 24.5%.
As to `Cc1nc(C(C)(C)C)sc1C(=O)NCCn1cccn1`, the cytotoxicity at 70.5 h was -0.966%.
Next, `CC(C)CCNC(=O)c1ccc(Cl)c(NS(C)(=O)=O)c1`: -4.83%; `CCN1CCN(c2ccc(C(=O)NC(C)C(=O)N(C)C)cc2)CC1` (centres undefined): -4.6%; `CC(C)CS(=O)(=O)CC(=O)NC(C)(C)c1cccc(F)c1`: 6.38%.
Next, `Cc1cccc(C(C)(C)NC(=O)CS(=O)(=O)CC(C)C)c1`: -4.98%.
Next, `Cc1nn(C)c(C)c1NC(=O)CNc1ccc(F)c(C(F)(F)F)c1`: -2.51%.
For the compound `CS(=O)(=O)CCN1CCC(=Cc2ccccc2)CC1`, the cytotoxicity at 70.5 h was -3.57%.
Next, `CC(NC(=O)c1cccs1)C(=O)NS(=O)(=O)c1cccc(C#N)c1` (centres undefined): 2.5%.
Next, `CC(NC(=O)c1cccs1)C(=O)NS(=O)(=O)Cc1ccc(C#N)cc1` (centres undefined): 4.04%; `Cc1ccccc1C1(CN)CCCCC1`: 10.6%.
Next, `Cc1ccccc1C1(CN)CCOCC1`: -6.58%; `Cc1nn(C)c(C)c1CCC(=O)N1CCc2sccc2C1`: 23.2%; `CN(C)C(=O)c1cccc(C[S+]([O-])CC(=O)NC2CCCC2)c1` (centres undefined): 5.53%.
As for `Cn1ccc(C(=O)N(CC(F)(F)F)c2cccc(Cl)c2)cc1=O`, the cytotoxicity at 70.5 h is 11.6%.
For `O=C(C1COc2ccccc2C1)N(CCO)Cc1ccccc1` (centres undefined), the cytotoxicity at 70.5 h is -1.94%.
As for `Cc1nn(C)c(C)c1CCC(=O)NCc1cccnc1OC1CCCC1`, the figure is -3.92%.
As for `Cc1nc(C)c(CC(=O)NCc2cccnc2OC2CCCC2)c(=O)[nH]1`, the figure is -4.62%; as for `CCC(C)(C)NC(=O)CN(Cc1cccc(O)c1)C1CCC(O)CC1` (centres undefined), -4.94%; as for `CC(C(=O)Nc1ccc2ccccc2c1)N1CCC(n2ccnc2)CC1` (centres undefined), -4.02%.
Next, `COc1ccc(Cl)cc1-c1cc(NC(=O)C2CNC(=O)N2)[nH]n1` (centres undefined): 1.69%; `Cc1cnn(CC2CCCCN2C(=O)c2sccc2C#N)c1` (centres undefined): -4.1%.
As to `CCCc1noc(CNc2cc(C[S+](C)[O-])ccc2Cl)n1` (centres undefined), the cytotoxicity at 70.5 h was -3.29%.
On to `Cc1cccc(C2(O)CCN(C(=O)c3ccc(N(C)C)cc3)CC2)c1C`, for which the cytotoxicity at 70.5 h came out at 9.92%.
As for `CN(C)C(=O)C1CN(Cc2ccc(C#N)cc2)c2ccccc2O1` (centres undefined), the figure is 4.19%.
As for `CCOc1ccc(CN2C(=O)CC(C)(C(C)C)C2=O)nc1` (centres undefined), the figure is 0.245%; as for `CC1CN(C)c2ccccc2CN1C(=O)NCc1ccon1` (centres undefined), -0.0778%.
`CS(=O)(=O)NCCCNCc1cc(F)ccc1Br`: the cytotoxicity at 70.5 h is -2.01%.
As for `Cc1noc(C)c1CNC(=O)N1Cc2ccccc2N(C)CC1C` (centres undefined), the figure is 7.21%; as for `Cc1cc(CN2CCCC(NS(C)(=O)=O)C2)ccc1-n1cncn1` (centres undefined), 11.7%.
Next, `Cc1cc(N2CCCC(OC(=O)CCN3CCCC3=O)C2)nc(C)n1` (centres undefined): -5.43%.
As for `Clc1ccc(CNc2ccc(Cl)cn2)cc1`, the figure is -9.29%; as for `Cc1ccsc1CNC(=O)CSc1nnc[nH]1`, -11.1%; as for `Cc1cccnc1NC(=O)C1CCN(C(=O)C(C)C)CC1`, -19.2%.
Regarding `CN1CCN(c2ccc(NC(=O)c3cccs3)c(C(F)(F)F)c2)CC1`, the cytotoxicity at 70.5 h was -9.41%.
As for `Cc1noc(C)c1CCC(=O)N(C)C(C)c1cccs1` (centres undefined), the figure is -11.3%.
As for `COc1ccc(C(C)Nc2ncc(C(N)=O)cc2Cl)c(OC)c1` (centres undefined), the figure is -4.47%; as for `CCn1ccc2cc(NC(=O)CC3CCCO3)ccc21` (centres undefined), -6.31%; as for `Cc1nc(C2(NCc3c(C)nn(C)c3N3CCOCC3)CCC2)no1`, 10.7%.
Next, `CCOCCN1CCN(CC(O)c2cc(Cl)ccc2Cl)CC1` (centres undefined): -5.82%; `Cc1nn(C)cc1C(C)Nc1ncc(C(N)=O)cc1Cl` (centres undefined): -5.7%; `Cc1cc(CS(=O)(=O)NC2CCCCC2)on1`: -15.3%.
As to `COc1ccc(Br)cc1CCC(=O)N1CCCC(O)C1` (centres undefined), the cytotoxicity at 70.5 h was -5.19%.
As for `COc1ccc(Br)cc1CCC(=O)N1CCSCC1`, the figure is 8.26%; as for `COc1ccc(Br)cc1CCC(=O)N1CCCC1`, -0.161%.
With `COc1cc(C)c(NC(=O)CCn2cccc2)cc1OC`, the cytotoxicity at 70.5 h is -6.6%.
Turning to `Cc1cccnc1C(NC(=O)CNC(=O)c1ccoc1C)C(C)C` (centres undefined), the cytotoxicity at 70.5 h was determined as 3.13%.
Next, `CN(c1ccc(CNc2ccc(Cl)cn2)cc1)S(C)(=O)=O`: -4.71%; `Cc1ccc(C(=O)N2CC(C(N)=O)O[C@H](C)C2)c(F)c1` (some centres undefined): -0.939%.
Consider `CCCS(=O)(=O)N1CCN(C(=O)CO)CC1`, for which the cytotoxicity at 70.5 h was -6.95%.
With `COc1cc(Cl)c(NC(=O)NCCn2cccc2)cc1OC`, the cytotoxicity at 70.5 h was -4.58%.
Next, `O=C(CO)N1CCN(S(=O)(=O)CCCF)CC1`: 3.01%; `CCc1nn(C)c(CC)c1CNC(=O)Nc1cccc2c1CCN2C`: -0.865%.
Take `CN1CCN(c2ccc(NC(=O)c3ccoc3)c(C(F)(F)F)c2)CC1`: the cytotoxicity at 70.5 h is -7.05%.
As for `COCCCC(=O)N(C)c1ccc(F)c(Cl)c1`, the cytotoxicity at 70.5 h is -8.74%.
With `Cc1ccc(C(=O)N2CC(C(N)=O)O[C@H](C)C2)c(C)c1` (some centres undefined), the cytotoxicity at 70.5 h amounted to 1.19%.
As for `CC(C)C(=O)NS(=O)(=O)c1ccc2c(c1)N(C)CCC2`, the figure is -8.04%; as for `COc1ccc(C2CCCN2C(=O)c2ccnc(NC3CC3)c2)cc1` (centres undefined), 6.42%.
As for `CCN(C(=O)CCc1ccccc1)C1CC(=O)NC1=O` (centres undefined), the figure is 0.716%.
Next, `CC(NCc1ccc(OCc2nccn2C)cc1)c1cccnc1` (centres undefined): -9.04%; `COCCNC(=O)Nc1ccc(-c2nc(C(C)C)no2)cc1`: -6.61%; `CC(C)OC(=O)CNC(=O)Nc1ccc(-c2nc(C(C)C)no2)cc1`: 2.82%.
Regarding `Cc1nnc2n1CCN(Cc1nc3c(F)cccc3[nH]1)C2`, the cytotoxicity at 70.5 h is -9.16%.
As for `COc1c(CNC2(c3noc(C)n3)CCC2)c(C)nn1C`, the figure is -7.32%.
